# Read-outs that look alike come from different tables or passages of the source.
# Tests used:
# [1] = Solubility in phosphate buffer pH 7.4
# Method in brief: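 3 mg of peptide treated with 100 μL portions of 200 mM phosphate buffer pH 7.4, sonicating/vortexing up to 1 min, with further buffer added until fully dissolved. Solubility then quantified by HPLC.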
# human GLP-1R = molecular target: T1, human GLP-1R (Homo sapiens, UniProt P43220); assay: Human GLP1R agonist activity, intracellular cAMP accumulation; format: cell-based; details: HEK-293T cells overexpressing human GLP-1R, 1 hr
# T1 construct: HEK-293T cells overexpressing full-length human GLP-1R; FLAG (N); host or cells: HEK-293T
# Protocol: Cells are cultured per the manufacturer's protocol in DMEM with 10% fetal bovine serum and 1 μg/mL puromycin and stored in frozen aliquots to be used as assay ready cells. On the day of the assay, cells are removed from frozen storage, washed two times in 1× Kreb's Ringer Buffer (Zenbio, Research Triangle Park, N.C.), and re-suspended to a concentration of 4×10^5 cells/mL in 1× Kreb's Ringer Buffer. […] Cells are incubated with test compound for 1 hr at room temperature in the dark, and cAMP accumulation is measured using the Cisbio HiRange cAMP assay kit (Bedford, Mass.) per the manufacturer's protocol. Anti-cAMP antibody and d2-cAMP tracer reagents diluted in lysis/detection buffer are incubated in the dark for 1 hr, and results are measured on an Envision plate reader (Perkin Elmer, Waltham, Mass.). Data is normalized using 1 nm GLP-1 as 100% activity, and DMSO alone as 0% activity.
# [2] = pH 7.4, aqueous buffer, pH 7.4 Phosphate Buffer - Solubility, 200 mM Phosphate buffer pH 7.4
# [3] = pH 7.4, solubility in phosphate buffer at pH 7.4, 200 mM phosphate buffer pH 7.4
# [4] = Human GLP1R cAMP EC50, HEK293T (nM)
# [5] = read-out: Human GLP1R cAMP EC50, HEK293T
# T1 sequence (P43220 24-463): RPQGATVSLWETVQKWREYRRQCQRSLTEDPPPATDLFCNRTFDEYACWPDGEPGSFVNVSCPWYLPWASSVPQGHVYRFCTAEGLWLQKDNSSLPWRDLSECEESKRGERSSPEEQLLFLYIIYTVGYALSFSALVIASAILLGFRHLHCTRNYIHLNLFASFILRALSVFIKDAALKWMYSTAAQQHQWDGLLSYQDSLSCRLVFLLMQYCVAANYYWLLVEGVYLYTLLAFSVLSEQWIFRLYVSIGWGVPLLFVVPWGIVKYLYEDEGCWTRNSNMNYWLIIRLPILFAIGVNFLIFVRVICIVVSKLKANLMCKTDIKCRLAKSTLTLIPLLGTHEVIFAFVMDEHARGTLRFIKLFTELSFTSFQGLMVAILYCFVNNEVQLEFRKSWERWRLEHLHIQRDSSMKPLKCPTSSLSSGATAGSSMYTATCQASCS
smiles,measurement,setting,value
CC[C@H](C)[C@H](NC(=O)[C@H](Cc1ccccc1)NC(=O)[C@@H](NC(=O)CNC(=O)[C@H](CCC(=O)O)NC(=O)C(C)(C)NC(=O)[C@H](Cc1ccc(O)cc1)NC)[C@@H](C)O)C(=O)N[C@@H](CO)C(=O)N[C@@H](CC(=O)O)C(=O)N[C@@H](Cc1ccc(O)cc1)C(=O)N[C@@H](CO)C(=O)N[C@H](C(=O)NC(C)(C)C(=O)N[C@@H](CCCCNC(=O)CNC(=O)CNC(=O)CNC(=O)CNC(=O)CNC(=O)CCCCCCCCCCCCCCCC(=O)O)C(=O)N[C@@H](CC(=O)O)C(=O)N[C@@H](CCCNC(=N)N)C(=O)NC(C)(C)C(=O)N[C@@H](C)C(=O)N[C@@H](CCC(N)=O)C(=O)NC(C)(C)C(=O)N[C@@H](CC(N)=O)C(=O)N[C@@H](Cc1ccccc1)C(=O)N[C@H](C(=O)N[C@@H](CC(N)=O)C(=O)N[C@@H](Cc1c[nH]c2ccccc12)C(=O)N[C@@H](CC(C)C)C(=O)N[C@@H](CC(C)C)C(=O)N[C@@H](C)C(=O)N[C@@H](CCC(N)=O)C(=O)N[C@@H](CO)C(=O)N1CCC[C@H]1C(=O)N[C@@H](CO)C(=O)N[C@@H](CO)C(=O)NCC(=O)N[C@@H](C)C(=O)N1CCC[C@H]1C(=O)N1CCC[C@H]1C(=O)N1CCC[C@H]1C(=O)N[C@@H](CO)C(=O)O)C(C)C)[C@@H](C)CC [Compound 95],solubility,[1]; [2],≥ 60 mg/mL
same,solubility,[1]; [3],≥ 15 mg/mL
same,EC50,human GLP-1R; [4],17.4 nM
CC[C@H](C)[C@H](NC(=O)[C@H](Cc1ccccc1)NC(=O)[C@@H](NC(=O)CNC(=O)[C@H](CCC(=O)O)NC(=O)C(C)(C)NC(=O)[C@H](Cc1ccc(O)cc1)NC)[C@@H](C)O)C(=O)N[C@@H](CO)C(=O)N[C@@H](CC(=O)O)C(=O)N[C@@H](Cc1ccc(O)cc1)C(=O)N[C@@H](CO)C(=O)N[C@H](C(=O)NC(C)(C)C(=O)N[C@@H](CCCCNC(=O)CNC(=O)CNC(=O)CNC(=O)CNC(=O)CNC(=O)CCCCCCCCCCCCCCCC(=O)O)C(=O)N[C@@H](CC(=O)O)C(=O)N[C@@H](CCCNC(=N)N)C(=O)NC(C)(C)C(=O)N[C@@H](C)C(=O)N[C@@H](CCC(N)=O)C(=O)NC(C)(C)C(=O)N[C@@H](CC(=O)O)C(=O)N[C@@H](Cc1ccccc1)C(=O)N[C@H](C(=O)N[C@@H](CC(N)=O)C(=O)N[C@@H](Cc1c[nH]c2ccccc12)C(=O)N[C@@H](CC(C)C)C(=O)N[C@@H](CC(C)C)C(=O)N[C@@H](C)C(=O)N[C@@H](CCC(N)=O)C(=O)N[C@@H](CCCNC(=N)N)C(=O)NCC(=O)O)C(C)C)[C@@H](C)CC [Compound 98],solubility,[1]; pH 7.4,≥ 15 mg/mL
same,solubility,"[1]; pH 7.4, aqueous buffer",≥ 30 mg/mL
same,EC50,human GLP-1R; [5],112 nM
CC[C@H](C)[C@H](NC(=O)[C@H](CO)NC(=O)[C@H](Cc1ccc(O)cc1)NC(=O)[C@H](CC(=O)O)NC(=O)[C@H](CO)NC(=O)[C@@H](NC(=O)[C@H](Cc1ccccc1)NC(=O)[C@@H](NC(=O)CNC(=O)[C@H](CCC(=O)O)NC(=O)C(C)(C)NC(=O)[C@H](Cc1ccc(O)cc1)NC)[C@@H](C)O)[C@@H](C)CC)C(=O)N[C@@H](C)C(=O)N[C@@H](CCCCNC(=O)CNC(=O)CNC(=O)CNC(=O)CNC(=O)CNC(=O)CCCCCCCCCCCCCCCCCCC(=O)O)C(=O)N[C@@H](CC(=O)O)C(=O)N[C@@H](CCCNC(=N)N)C(=O)NC(C)(C)C(=O)N[C@@H](C)C(=O)N[C@@H](CCC(N)=O)C(=O)NC(C)(C)C(=O)N[C@@H](CC(N)=O)C(=O)N[C@@H](Cc1ccccc1)C(=O)N[C@H](C(=O)N[C@@H](CC(N)=O)C(=O)N[C@@H](Cc1c[nH]c2ccccc12)C(=O)N[C@@H](CC(C)C)C(=O)N[C@@H](CC(C)C)C(=O)N[C@@H](C)C(=O)N[C@@H](CCC(N)=O)C(=O)N[C@@H](CO)C(=O)N1CCC[C@H]1C(=O)N[C@@H](CO)C(=O)N[C@@H](CO)C(=O)NCC(=O)N[C@@H](C)C(=O)N1CCC[C@H]1C(=O)N1CCC[C@H]1C(=O)N1CCC[C@H]1C(=O)N[C@@H](CO)C(=O)O)C(C)C [Compound 112],solubility,[1]; [2],≥ 30 mg/mL
same,solubility,[1]; [3],≥ 15 mg/mL
same,EC50,human GLP-1R; [4],21.4 nM
CC[C@H](C)[C@H](NC(=O)[C@H](CO)NC(=O)[C@H](Cc1ccc(O)cc1)NC(=O)[C@H](CC(=O)O)NC(=O)[C@H](CO)NC(=O)[C@@H](NC(=O)[C@H](Cc1ccccc1)NC(=O)[C@@H](NC(=O)CNC(=O)[C@H](CCC(=O)O)NC(=O)C(C)(C)NC(=O)[C@H](Cc1ccc(O)cc1)NC)[C@@H](C)O)[C@@H](C)CC)C(=O)N[C@@H](C)C(=O)N[C@@H](CC(C)C)C(=O)N[C@@H](CC(=O)O)C(=O)N[C@@H](CCCNC(=N)N)C(=O)N[C@@H](CCCCNC(=O)CNC(=O)CNC(=O)CNC(=O)CNC(=O)CNC(=O)CCCCCCCCCCCCCCCCC(=O)O)C(=O)N[C@@H](C)C(=O)N[C@@H](CCC(N)=O)C(=O)NC(C)(C)C(=O)N[C@@H](CC(=O)O)C(=O)N[C@@H](Cc1ccccc1)C(=O)N[C@H](C(=O)N[C@@H](CC(N)=O)C(=O)N[C@@H](Cc1c[nH]c2ccccc12)C(=O)N[C@@H](CC(C)C)C(=O)N[C@@H](CC(C)C)C(=O)N[C@@H](C)C(=O)N[C@@H](CCC(N)=O)C(=O)N[C@@H](CO)C(=O)N1CCC[C@H]1C(=O)NCC(=O)O)C(C)C [Compound 113],solubility,[1]; pH 7.4,≥ 15 mg/mL
same,solubility,"[1]; pH 7.4, aqueous buffer",≥ 30 mg/mL
same,EC50,human GLP-1R; [5],13.5 nM
CC[C@H](C)[C@H](NC(=O)[C@H](CO)NC(=O)[C@H](Cc1ccc(O)cc1)NC(=O)[C@H](CC(=O)O)NC(=O)[C@H](CO)NC(=O)[C@@H](NC(=O)[C@H](Cc1ccccc1)NC(=O)[C@@H](NC(=O)CNC(=O)[C@H](CCC(=O)O)NC(=O)C(C)(C)NC(=O)[C@H](Cc1ccc(O)cc1)NC)[C@@H](C)O)[C@@H](C)CC)C(=O)N[C@@H](C)C(=O)N[C@@H](CCCCNC(=O)CNC(=O)CNC(=O)CNC(=O)CNC(=O)CNC(=O)CCCCCCCCCCCCCCCCC(=O)O)C(=O)N[C@@H](CC(=O)O)C(=O)N[C@@H](CCCNC(=N)N)C(=O)NC(C)(C)C(=O)N[C@@H](C)C(=O)N[C@@H](CCC(N)=O)C(=O)N[C@@H](CCCNC(=N)N)C(=O)N[C@@H](CC(=O)O)C(=O)N[C@@H](Cc1ccccc1)C(=O)N[C@H](C(=O)N[C@@H](CCC(=O)O)C(=O)N[C@@H](Cc1c[nH]c2ccccc12)C(=O)N[C@@H](CC(C)C)C(=O)N[C@@H](CC(C)C)C(=O)N[C@@H](C)C(=O)N[C@@H](CCC(N)=O)C(=O)N[C@@H](CO)C(=O)N1CCC[C@H]1C(=O)NCC(=O)O)C(C)C [Compound 120],solubility,[1]; pH 7.4,≥ 15 mg/mL
same,solubility,"[1]; pH 7.4, aqueous buffer",≥ 30 mg/mL
same,EC50,human GLP-1R; [5],15.8 nM
CC[C@H](C)[C@H](NC(=O)[C@H](Cc1ccccc1)NC(=O)[C@@H](NC(=O)CNC(=O)[C@H](CCC(=O)O)NC(=O)C(C)(C)NC(=O)[C@@H](N)Cc1ccc(O)cc1)[C@@H](C)O)C(=O)N[C@@H](CO)C(=O)N[C@@H](CC(=O)O)C(=O)N[C@@H](Cc1ccc(O)cc1)C(=O)N[C@@H](CO)C(=O)N[C@H](C(=O)NC(C)(C)C(=O)N[C@@H](CCCCNC(=O)CNC(=O)CNC(=O)CNC(=O)CNC(=O)CNC(=O)CCCCCCCCCCCCCCCCC(=O)O)C(=O)N[C@@H](CC(=O)O)C(=O)N[C@@H](CO)C(=O)NC(C)(C)C(=O)N[C@@H](C)C(=O)N[C@@H](CCC(N)=O)C(=O)NC(C)(C)C(=O)N[C@@H](CC(=O)O)C(=O)N[C@@H](Cc1ccccc1)C(=O)N[C@H](C(=O)N[C@@H](CC(N)=O)C(=O)N[C@@H](Cc1c[nH]c2ccccc12)C(=O)N[C@@H](CC(C)C)C(=O)N[C@@H](CC(C)C)C(=O)N[C@@H](C)C(=O)N[C@@H](CCC(N)=O)C(=O)N[C@@H](CCCNC(=N)N)C(=O)NCC(=O)O)C(C)C)[C@@H](C)CC [Compound 150],solubility,[1]; pH 7.4,≥ 15 mg/mL
same,solubility,"[1]; pH 7.4, aqueous buffer",≥ 30 mg/mL
same,EC50,human GLP-1R; [5],13.5 nM
CC[C@H](C)[C@H](NC(=O)[C@H](Cc1ccccc1)NC(=O)[C@@H](NC(=O)CNC(=O)[C@H](CCC(=O)O)NC(=O)C(C)(C)NC(=O)[C@@H](N)Cc1ccc(O)cc1)[C@@H](C)O)C(=O)N[C@@H](CO)C(=O)N[C@@H](CC(=O)O)C(=O)N[C@@H](Cc1ccc(O)cc1)C(=O)N[C@@H](CO)C(=O)N[C@H](C(=O)NC(C)(C)C(=O)N[C@@H](CCCCNC(=O)CNC(=O)CNC(=O)CNC(=O)CNC(=O)CNC(=O)CCCCCCCCCCCCCCCCC(=O)O)C(=O)N[C@@H](CC(=O)O)C(=O)N[C@@H](CO)C(=O)NC(C)(C)C(=O)N[C@@H](C)C(=O)N[C@@H](CCC(N)=O)C(=O)N[C@@H](C)C(=O)N[C@@H](CC(=O)O)C(=O)N[C@@H](Cc1ccccc1)C(=O)N[C@H](C(=O)N[C@@H](CC(N)=O)C(=O)N[C@@H](Cc1c[nH]c2ccccc12)C(=O)N[C@@H](CC(C)C)C(=O)N[C@@H](CC(C)C)C(=O)N[C@@H](C)C(=O)N[C@@H](CCC(N)=O)C(=O)N[C@@H](CCCNC(=N)N)C(=O)NCC(=O)O)C(C)C)[C@@H](C)CC [Compound 152],solubility,[1]; pH 7.4,≥ 15 mg/mL
same,solubility,"[1]; pH 7.4, aqueous buffer",≥ 30 mg/mL
same,EC50,human GLP-1R; [5],33.1 nM

# — patent publication US20230143604A1, “QW DOSING OF GIP RECEPTOR AGONIST PEPTIDE COMPOUNDS AND USES THEREOF” (TAKEDA PHARMACEUTICAL COMPANY LIMITED, priority 2020, published 2023)
